Reference: patent publication EP2980218A1, “Aptamer thrombin complex for use as an antidote to direct acting thrombin inhibitors” (Rheinische Friedrich-Wilhelms-Universität Bonn, priority 2014, dated 2016)

Columns and labels:
[1] = humans, after dabigatran administration; cited from earlier work
[2] = anticoagulation monitoring (anti-FIIa activity) after oral dabigatran in mice; assay type: in vivo; settings: oral administration of 1 mg/g body weight dabigatran
Description: The in-vivo antidote properties of aptathrombin were studied in a mouse model after oral administration of 1 mg/g body weight dabigatran.

With “N-[2-(4-Aminoiminomethylphenylamino)-1-methyl-1H-benzimidazol-5-ylcarbonyl]-N-(2-pyridyl)-beta-alanine [dabigatran]” as the substance, how does the “plasma concentration, upper limit of the peak level” value [1] read?
Its value is 280 ng/mL.

And the “time at which peak level is reached” value [1]?
Its value is 2 to 4 h.

And the “time to peak level of anti-FIIa activities” value [2]?
Its value is 3 to 4 h.
